Experimental data taken from patent publication US11814364B2, “Pyridine N-oxide derivatives useful as factor XIa inhibitors” (Janssen Pharmaceutica NV, priority 2021, dated 2023).
pIC50: −log10 of the molar value.

Target: human plasma kallikrein (Homo sapiens, UniProt P03952)
Assay: Kallikrein inhibition FLINT assay with quenched AMC peptide substrate Z-Gly-Pro-Arg-AMC (end point EP or kinetic KIN reads)
Assay type: biochemical
Conditions: kinetic reads at 5 min intervals over 30 min; read-out: Kallikrein (KIN) IC50
Procedure: A fluorescence intensity (FLINT) based assay was used to monitor inhibition of human plasma kallikrein.
The Kallikrein FLINT assay was used with the following Z-Gly-Pro-Arg-AMC assay buffer: 50 mM Tris, pH 7.5, 100 mM NaCl, 5 mM CaCl2, 0.1 mg/mL BSA, 0.03% CHAPS. Assay buffer was prepared by mixing all ingredients fresh. 2× Z-Gly-Pro-Arg-AMC peptide substrate was prepared by diluting 10 mM stock into 1× assay buffer for a 100 μM working concentration (50 μM final concentration).
Test compound(s) were run in an 11-point, 3-fold serial dilution with a final top compound concentration of 1 μM. Final DMSO in assay was 2%. Plasma kallikrein was pre-incubated for 30-minute with compound and then 50 μM substrate was added to initiate the reaction. The assay was run with either end point (EP) reads at 30 min or kinetic (KIN) reads at 5 min intervals over 30 minutes.
Percent inhibition (IC50) curves were generated per compound tested, and data was analyzed using a 4-parameter logistic fit using GeneData Screener. The relative fluorescence unit (RFU) values were normalized to percent inhibition using the following equation: % inhibition=((HC−LC)−(compound−LC)/(HC−LC))*100
An 11-point dose response curve for the test compound(s) was generated using GENDATA to determine IC50 value based on the following equation: Y=Bottom+(Top−Bottom)/(1+10^((log IC50−X)*HillSlope))
Results listed in columns with […] designation were measured using endpoint reads where a single fluorescence reading was measured for each well at a 30 min timepoint.

Chain of human plasma kallikrein (P03952 391-638 limits assumed): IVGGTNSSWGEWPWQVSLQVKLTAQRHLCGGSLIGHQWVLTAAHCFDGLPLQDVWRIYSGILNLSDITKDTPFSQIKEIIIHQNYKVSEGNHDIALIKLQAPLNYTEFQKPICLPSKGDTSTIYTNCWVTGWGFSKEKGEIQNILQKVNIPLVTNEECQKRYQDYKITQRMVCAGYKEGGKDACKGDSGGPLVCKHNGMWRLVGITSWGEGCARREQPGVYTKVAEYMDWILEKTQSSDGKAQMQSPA
Chain of human plasma kallikrein (P03952 20-390 partner limits assumed): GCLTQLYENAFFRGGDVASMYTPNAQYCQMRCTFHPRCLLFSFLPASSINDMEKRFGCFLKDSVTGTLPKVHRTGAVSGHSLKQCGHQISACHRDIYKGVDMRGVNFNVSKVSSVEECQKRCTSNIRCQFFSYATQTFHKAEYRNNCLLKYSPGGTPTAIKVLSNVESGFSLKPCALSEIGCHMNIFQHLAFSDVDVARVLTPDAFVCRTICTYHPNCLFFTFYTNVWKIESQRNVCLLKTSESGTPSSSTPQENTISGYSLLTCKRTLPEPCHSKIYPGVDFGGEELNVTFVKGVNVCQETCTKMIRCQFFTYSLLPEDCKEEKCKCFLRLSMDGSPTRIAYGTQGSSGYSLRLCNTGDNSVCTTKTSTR

pIC50	SMILES
8.85	Nc1ccc(-c2cnn(C(Cn3cccn3)c3ccc(-c4c(-n5cnnn5)ccc(Cl)c4F)c[n+]3[O-])c2)c(F)n1 (single isomer, unassigned) [Example P314]
6.57	[O-][n+]1cc(-c2c(-n3cnnn3)ccc(Cl)c2F)ccc1C(Cn1ccc(-c2ccccc2)n1)n1cc(-c2ccncc2)cn1 (stereo not drawn) [Example P270]
7.09	COc1cc(C(CC2CC2)n2cc(-c3c(F)nnn3C)cn2)[n+]([O-])cc1-c1cc(Cl)ccc1C#N (single isomer, unassigned) [Example Q62]
6.75	COC(=O)Nc1ccc(-c2cnn(C(CC(C)C)c3ccc(-c4c(-n5cnnn5)ccc(Cl)c4F)c[n+]3[O-])c2)cc1 (stereo not drawn) [Example P179]
< 7.00	CC1CC1CC(c1ccc(-c2c(-n3cnnn3)ccc(Cl)c2F)c[n+]1[O-])n1cc(-c2ncnn2C(F)F)cn1 (stereo not drawn) [Example P765]
8.01	[O-][n+]1cc(-c2c(-n3cnnn3)ccc(Cl)c2F)ccc1C(Cc1ccn(C(F)F)n1)n1cc(-c2ccnc(C(F)(F)F)c2)cn1 (stereo not drawn) [Example P703]
7.49	COC(=O)N(C)CC(c1ccc(-c2c(-n3cnnn3)ccc(Cl)c2F)c[n+]1[O-])n1cc(-c2ccncc2)cn1 (stereo not drawn) [Example P303]
7.02	NC(=O)c1ccnn1CC(c1ccc(-c2c(C(F)F)ccc(Cl)c2F)c[n+]1[O-])n1cc(-c2ccnc(C(F)(F)F)c2)cn1 (single isomer, unassigned) [Example Q28]
7.19	CN(CC(c1ccc(-c2c(-n3cnnn3)ccc(Cl)c2F)c[n+]1[O-])n1cc(-c2ccnc(C(F)(F)F)c2)cn1)C(=O)C1CC1 (single isomer, unassigned) [Example P428]
~7.03	CC(C)n1nncc1-c1cnn(C(CCOC(F)F)c2ccc(-c3c(-n4cc(C(F)(F)F)nn4)ccc(Cl)c3F)c[n+]2[O-])c1 (stereo not drawn) [Example P803]
8.40	O=C(O)c1ccc(-c2cnn([C@H](CCOC(F)F)c3ccc(-c4c(C(F)F)ccc(Cl)c4F)c[n+]3[O-])c2)cc1 [Example Q35]
7.87	[O-][n+]1cc(-c2c(-n3cnnn3)ccc(Cl)c2F)ccc1C(Cn1cc(F)cn1)n1cc(-c2ccnc(F)c2)cn1 (stereo not drawn) [Example P352]
9.40	COC(=O)Nc1ccc(-c2cnn(C(Cc3ccn(C)n3)c3ccc(-c4c(-n5cnnn5)ccc(Cl)c4F)c[n+]3[O-])c2)cc1 (single isomer, unassigned) [Example P328]
6.30	COC(C)(C)C[C@H](c1ccc(-c2c(-n3cnnn3)ccc(Cl)c2F)c[n+]1[O-])n1cc(-c2ccnn2C(F)F)cn1 [Example P646]
9.15	[O-][n+]1ccc(-c2cnn(C(Cc3ccc(F)cc3)c3ccc(-c4c(-n5cnnn5)ccc(Cl)c4F)c[n+]3[O-])c2)cc1 (single isomer, unassigned) [Example P238]
< 7.00	CC1CC1CC(c1ccc(-c2c(-n3cnnn3)ccc(Cl)c2F)c[n+]1[O-])n1cc(-c2ncnn2C(F)F)cn1 (stereo not drawn) [Example P764]
6.03	N#Cc1cnn(C(F)F)c1-c1cnn(C(CC2CC2)c2ccc(-c3c(-n4cnnn4)ccc(Cl)c3F)c[n+]2[O-])c1 (single isomer, unassigned) [Example P663]
6.54	NC(=O)C1CC1CC(c1ccc(-c2cc(Cl)ccc2-n2cnnn2)c[n+]1[O-])n1cc(-c2ccc(C(=O)O)cc2)cn1 (stereo not drawn) [Example P113]
8.60	NC(=O)c1ccc(-c2cnn(C(Cc3ccn(C(F)F)n3)c3ccc(-c4c(-n5cc(Cl)nn5)ccc(Cl)c4F)c[n+]3[O-])c2)cc1F (stereo not drawn) [Example P894]
8.09	[O-][n+]1cc(-c2c(-n3cnnn3)ccc(Cl)c2F)ccc1C(Cn1cc(F)cn1)n1cc(-c2ccncc2)cn1 (stereo not drawn) [Example P276]
6.50	[O-][n+]1cc(-c2c(-n3cnnn3)ccc(Cl)c2F)ccc1C(CC1CCCO1)n1cc(-c2ccncc2)cn1 (stereo not drawn) [Example P186]
8.82	[O-][n+]1cc(-c2c(-n3cnnn3)ccc(Cl)c2F)ccc1[C@@H](CCOC(F)F)n1cc(-c2c(F)cncc2Cl)cn1 [Example P583]
7.59	CC(C)(C)c1cc(-c2cnn(C(Cn3cc(F)cn3)c3ccc(-c4c(-n5cnnn5)ccc(Cl)c4F)c[n+]3[O-])c2)ccn1 (stereo not drawn) [Example P395]
7.02	CC(C)(C)c1cc(-c2cnn(C(Cn3cc(F)cn3)c3ccc(-c4c(-n5cnnn5)ccc(Cl)c4F)c[n+]3[O-])c2)cc[n+]1[O-] (stereo not drawn) [Example P436]
6.05	[O-][n+]1cc(-c2c(-n3cnnn3)ccc(Cl)c2F)ccc1C(Cn1cc(F)cn1)n1cc(-c2ccnn2C(F)F)cn1 (stereo not drawn) [Example P645]
6.89	[O-][n+]1ccc(-c2cnn(C(Cn3cccn3)c3ccc(-c4c(-n5cnnn5)ccc(Cl)c4F)c[n+]3[O-])c2)nc1 (stereo not drawn) [Example P320]

pIC50	SMILES
7.32	[O-][n+]1ccc(-c2cnn(C(Cc3ccc(F)cc3)c3ccc(-c4c(OC(F)F)ccc(Cl)c4F)c[n+]3[O-])c2)cc1 (single isomer, unassigned) [Example Q19]
7.12	COc1cc(C(CC2CC2)n2cc(-c3cnn(C(C)C)c(=O)c3)cn2)[n+]([O-])cc1-c1c(-n2cnnn2)ccc(Cl)c1F (stereo not drawn) [Example P161]
7.84	NC(=O)c1ccc(-c2cnn(C(CC3CC3)c3ccc(-c4c(-n5cnnn5)ccc(Cl)c4F)c[n+]3[O-])c2)cc1F (single isomer, unassigned) [Example P947]
7.36	Cn1cc(CC(c2ccc(-c3c(-n4cnnn4)ccc(Cl)c3F)c[n+]2[O-])n2cc(-c3ccnc(C(F)(F)F)c3)cn2)nn1 (stereo not drawn) [Example P695]
6.75	CC(C)(C)OCC[C@H](c1ccc(-c2c(-n3cnnn3)ccc(Cl)c2F)c[n+]1[O-])n1cc(-c2ccnn2C(F)F)cn1 [Example P640]
7.06	NC(=O)c1ccc(-c2cnn(C(CC(=O)N3CCCC3)c3ccc(-c4c(-n5cc(C(F)(F)F)nn5)ccc(Cl)c4F)c[n+]3[O-])c2)cc1F (stereo not drawn) [Example P902]
7.87	[O-][n+]1cc(-c2c(-n3cnnn3)ccc(Cl)c2F)ccc1[C@@H](CCOC(F)F)n1cc(-c2scnc2C(F)(F)F)cn1 [Example P580]
6.09	Cn1cc(C[C@@H](c2ccc(-c3c(-n4cnnn4)ccc(Cl)c3F)c[n+]2[O-])n2cc(-c3ccnc(C(F)(F)F)c3)cn2)nn1 [Example P737]
7.00	NC(=O)Cc1ccnn1CC(c1ccc(-c2c(-n3cnnn3)ccc(Cl)c2F)c[n+]1[O-])n1cc(-c2ccnc(C(F)(F)F)c2)cn1 (stereo not drawn) [Example P470]
6.59	Cn1ncnc1-c1cnn([C@H](CCOC(F)F)c2ccc(-c3cc(Cl)ccc3-n3cc(C(F)(F)F)nn3)c[n+]2[O-])c1 [Example P805]
6.23	[O-][n+]1cc(-c2c(-n3cnnn3)ccc(Cl)c2F)ccc1[C@H](Cc1cn(C(F)F)nn1)n1cc(-c2ccnc(C(F)(F)F)c2)cn1 [Example P746]
6.52	Cc1nccn1-c1cnn(C(CCOC(F)F)c2ccc(-c3c(-n4cc(OC(F)F)nn4)ccc(Cl)c3F)c[n+]2[O-])c1 (single isomer, unassigned) [Example P826]
8.51	[O-][n+]1cc(-c2c(-n3cnnn3)ccc(Cl)c2F)ccc1[C@@H](Cc1ccc(F)cc1)n1cc(-c2ccnn2C(F)F)cn1 [Example P568]
6.80	[O-][n+]1cc(-c2c(-n3cnnn3)ccc(Cl)c2F)ccc1C(Cc1ccc(F)cc1)n1cc(-c2ccncc2)cn1 (single isomer, unassigned) [Example P236]
8.52	Nc1ccc(-c2cnn(C(Cn3cccn3)c3ccc(-c4c(-n5cnnn5)ccc(Cl)c4F)c[n+]3[O-])c2)c(F)n1 (stereo not drawn) [Example P256]
7.50	NC(=O)c1ccc(-c2cnn(C(CCOC(F)F)c3ccc(-c4c(-n5cc(C(F)(F)F)nn5)ccc(Cl)c4F)c[n+]3[O-])c2)cc1F (stereo not drawn) [Example P844]
6.31	O=C(O)C1CCN(C(=O)C2CC2CC(c2ccc(-c3c(-n4cnnn4)ccc(Cl)c3F)c[n+]2[O-])n2cc(-c3ccccc3)cn2)CC1 (stereo not drawn) [Example P213]
6.82	[O-][n+]1cc(-c2c(-n3cnnn3)ccc(Cl)c2F)ccc1C(CCOC(F)(F)F)n1cc(-c2ccncn2)cn1 (stereo not drawn) [Example P366]
7.49	CN(CC(c1ccc(-c2c(-n3cnnn3)ccc(Cl)c2F)c[n+]1[O-])n1cc(-c2ccnc(C(F)(F)F)c2)cn1)C(=O)c1ccccc1 (single isomer, unassigned) [Example P409]
6.60	[O-][n+]1cc(-c2c(-n3cnnn3)ccc(Cl)c2F)ccc1[C@@H](CC1CC1)n1cc(-c2ncnn2C(F)F)cn1 [Example P762]
7.99	Cn1ccc(CC(c2ccc(-c3c(-n4cnnn4)ccc(Cl)c3F)c[n+]2[O-])n2cc(-c3ccnc(C#N)c3)cn2)n1 (stereo not drawn) [Example P359]
6.98	CN1CCN(CC(c2ccc(-c3c(-n4cnnn4)ccc(Cl)c3F)c[n+]2[O-])n2cc(-c3ccnc(C(F)(F)F)c3)cn2)C1=O (single isomer, unassigned) [Example P433]
7.44	CC(C)c1cc(-c2cnn(C(Cn3cc(F)cn3)c3ccc(-c4c(-n5cnnn5)ccc(Cl)c4F)c[n+]3[O-])c2)ccn1 (stereo not drawn) [Example P393]
8.04	[O-][n+]1cc(-c2c(-n3cnnn3)ccc(Cl)c2F)ccc1C(Cn1cccn1)n1cc(-c2ccnc(F)c2)cn1 (stereo not drawn) [Example P309]
7.55	COC(=O)Nc1ccc(-c2cnn(C(Cc3ccccc3OC)c3ccc(-c4c(-n5cnnn5)ccc(Cl)c4F)c[n+]3[O-])c2)cc1 (stereo not drawn) [Example P164]
